Source: publication PMC12030355 (Pharmaceuticals, 2025)

Assay: in vitro
Parameters: MTT cytotoxicity assay, absorbance 450 nm, normal cell line
Details: human, wi-38 cells; read-out: Cytotoxicity IC50 uM WI38
Method: 3.2.3. […] The remaining substances and tools were from either Sigma or Invitrogen. Before performing the MTT experiment, cells were seeded on a 96-well plate at a density of 1.2–1.8 10,000 cells/well in a volume of 100 μL complete growth media + 100 μL of the test substance each well. Multiwell plates are an excellent choice for using the MTT method, which is used to track in vitro cytotoxicity. Using cells in the log phase of growth and keeping the ultimate cell density around 10^6 cells/cm^2 will produce the best results. Every test should include a blank with a full medium but no cells. Cultures should be moved from the incubator into a sterile workspace, such as a laminar flow hood. Each MTT [M-5655] vial should be reconstituted with 3 mL of medium or balanced salt solution devoid of phenol red and serum. 10% of the volume of the culture medium should be added to the reconstituted MTT solution. Incubate cultures again for 2–4 h, depending on the type of cell and the maximal cell density. […] After the incubation period, remove the cultures from the incubator and apply MTT Solubilization Solution [M-8910] in a quantity equal to the volume of the original culture media to dissolve the formazan crystals that formed. In a gyratory shaker, gentle blending will improve solubility. Trituration, or pipetting up and down, may occasionally be necessary to completely dissolve the MTT formazan crystals, especially in thick cultures at a wavelength of 450 nm, and measure the absorbance spectrophotometrically. The background absorbance of multiwell plates at 690 nm were subtracted from 450 nm data. A suitable plate 7. Incubate cultures at 37°C for 24 hrs. 8-After treatment of cells with the serial concentrations of the compound to be tested incubation is carried out for 48 h at 37 °C ,then the plates are to be examined under the inverted microscope and proceed for the MTT assay MTT – Cytotoxicity assay protocol The MTT method of monitoring in vitro cytotoxicity is well suited for use with multiwell plates. For best results, cells in the log phase of growth should be employed and final cell number should not exceed 10^6 cells/cm2. Each test should include a blank containing complete medium without cells. 1. Remove cultures from incubator into laminar flow hood or other sterile work area.

Compound | CC50 at 48 h
COc1cccc2c1C(=O)c1c(O)c3c(c(O)c1C2=O)C[C@@](O)(C(=O)CO)C[C@@H]3O[C@H]1C[C@H](N)[C@H](O)[C@H](C)O1 [Doxorubicin] | 14.1 µM
CCn1cc(-c2nc3ccccc3s2)c(=O)c2cc(F)c(N3CCNCC3)cc21 [compound 15, 3-(Benzo[d]thiazol-2-yl)-1-ethyl-6-fluoro-7-(piperazin-1-yl)quinolin-4(1H)-one] | 39.2 µM
CCn1cc(C(=O)O)c(=O)c2cc(F)c(N3CCNCC3)cc21 [compound 1, norfloxacin] | 54.6 µM
CCOC(=O)N1CCN(c2cc3c(cc2F)c(=O)c(C(=O)O)cn3CC)CC1 [compound 7, 7-(4-(Ethoxycarbonyl)piperazin-1-yl)-1-ethyl-6-fluoro-4-oxo-1,4-dihydroquinolin-3-carboxylic acid] | 47.9 µM
CCn1cc(C(=O)O)c(=O)c2cc(F)c(N3CCN(C(=O)CC#N)CC3)cc21 [compound 6] | 34.1 µM
CCn1cc(-c2nc3ccccc3s2)c(=O)c2cc(F)c(N3CCN(C(=O)CCl)CC3)cc21 [compound 16, 3-(Benzo[d]thiazol-2-yl)-7-(4-(2-chloroacetyl)piperazin-1-yl)-1-ethyl-6-fluoroquinolin-4(1H)-one] | 51.2 µM
